Data on two compounds can be found in patent publication US20080220416A1, “Compositions for Inhibiting Cell Growth and Inducing Apoptosis in Cancer Cells and Methods of Use Thereof” (THE BOARD OF TRUSTEES OF THE UNIVERSITY OF ILLINOI, priority 2004, published 2008).

Peptide text beside a SMILES is read from it. * marks the point of attachment. Cbz = O=C(OCc1ccccc1)*

In one experiment the test system is normal melanocytes. Nature of the experiment: Proteasome inhibitors, apoptosis of normal melanocyte cultures (Annexin V FITC flow cytometry). The format is cell-based, human. The procedure: The proteasome inhibitors lactacystin, MG-132, and bortezomib were evaluated for the ability to induce apoptosis in malignant melanoma cell lines (n=3) including an early passage line, RJ002L. MG-132 was obtained from Calbiochem (La Jolla, Calif.) and dissolved in DMSO. Lactacystin was purchased from Sigma Chemical Co. (St. Louis, Mo.) and dissolved in PBS. Bortezomib was obtained from a pharmacy as VELCADE (bortezomib) for Injection from a single use vial for intravenous use only (Millennium Pharmaceuticals, Cambridge, Mass.). A cell line with wild-type p53 (RJ002L) and two melanoma cell lines with mutant p53 alleles (C8161 and MUM2B) were included in this study. Two additional melanoma cell lines were also used: cutaneous SK-MeI-28 cells and primary, early passage MG012 cells. In addition, five normal melanocyte culture cell lines (MC-005, MC-006, MC-008, MC-009 and MC-011) were examined. Prior to testing, the melanoma cell lines were maintained in RPMI supplemented with 10% FBS. Normal human melanocytes were isolated from neonatal foreskins as previously described (Qin J et al., 2004, Mol Cancer Ther 3:895-902, 2004) and cultured with medium 154 containing growth supplements (Cascade Biologics, Portland, Oreg.).
To assess the effect of proteasome inhibitors on the cell lines, the cells were grown in suitable culture media as described above. […]
Following treatment with the proteasome inhibitors, the melanoma and melanocyte cell cultures were assayed for apoptotic cells using the APO TARGET Annexin V FITC staining kit (Biosource, Camarillo, Calif.) according to the manufacturer's instructions followed by flow cytometric analysis using FACScaliber (Becton Dickinson, Palo Alto, Calif.) as described in Qin, J. et al., 2001, Nat Med 7: 385-386. In some cases, cell cycle and apoptosis analysis was measured using propidium iodide staining and flow cytometry as described. […] For cell analysis, DNA histograms were analyzed using MultiCycle for Windows (Phoenix Flow Systems, San Diego, Calif.) as described in Denning, M. F. et al., 1998, J Biol Chem 273: 29995-30002.
For orientation: A flow cytometer gives signals particle by particle.

In the next experiment the test system is NOXA. The experiment in a line: Western blot of NOXA after proteasome inhibitors in melanoma cells. It is filed as cell-based, human. As to conditions: RJ002L, C8161, MUM2B, 18 hrs. The text has this: A panel of melanoma cells were used to assess the effect of bortezomib on pro-apoptotic proteins. RJ002L, C8161, MUM2B and SK-MeI-28 melanoma cells, as well as two normal melanocyte cultures (MC-010 and MC-012) were examined. Prior to testing, the RJ002L melanoma cell lines were maintained in RPMI supplemented with 10% FBS. Late passage melanoma cell lines (C8161, MUM2B and SK-Me1028) were utilized as previously described (Welch D et al., 1991, Int J Cancer 47:227-237; Bittner M et al., 2000, Nature 406:536-540). Normal human melanocytes were isolated from neonatal foreskins and cultured as previously described (Qin J et al., 2004, Mol Cancer Ther 3:895-902). Proliferating cells were examined by Western blot analysis before and after 18 hrs of exposure to bortezomib (1 μM). Antibodies were obtained as follows: Bad (SC-8044), Bcl-2 (SC-7382), Bcl-xL (SC-634), Mcl-1 (SC-819), Bak (SC-832) from Santa Cruz Biotechnology (Santa Cruz, Calif.); NOXA (OP180) from Calbiochem; Bid, Bim and PUMA from Cell Signaling (Beverly, Mass.); BAX from Upstate (Charlottesville, Va.); and β-actin from ICN (Irvine, Calif.). For the Western blot analysis, whole cell extracts were prepared as previously described (Denning M et al., 1998, J Biol Chem 273:29995-30002). Briefly, cells were harvested by scraping monolayers and washed with PBS. Cell pellets were resuspended in CHAPS buffers containing a protease inhibitor cocktail. Extracts were vigorously shaken at 4° C. for 15 min followed by centrifugation. Supernatants were collected and protein concentration determined using Bio-Rad reagent. Thirty to 50 microgram protein samples were resolved by SDS-polyacrylamide gel electrophoresis and transferred to polyvinylidene difluoride membrane by electroblotting. Membranes were probed with the various primary antibodies overnight at 4° C., followed by detection using ECL reagents (Amersham Pharmacia Biotech, Piscataway, N.J.) according to manufacturer's instructions.
Two other proteasome inhibitors, lactasytsin and MG-132, were tested for the ability to induce NOXA in melanoma cells and melanocytes. […]
In general terms: A western blot detects proteins with antibodies after separation by electrophoresis.

As for `CC(C)C[C@@H](C=O)NC(=O)[C@H](CC(C)C)NC(=O)[C@H](CC(C)C)NC(=O)OCc1ccccc1` [MG-132, benzoxycarbonyl-Leucyl-Leucyl-Leucyl-aldehyde] (Cbz-Leu-Leu-Leu-aldehyde), the cells undergoing apoptosis result in the experiment on normal melanocytes (MC-005, MC-006, MC-008, 24 hrs, 1, 5 or 10 μM) is given as “No more than 10%”. For the same compound, in the experiment on NOXA (1 μM or 10 μM), the NOXA induction entry is given as “induced high NOXA levels”.
As for `CC(C)C[C@H](NC(=O)[C@H](Cc1ccccc1)NC(=O)c1cnccn1)B(O)O` [bortezomib, N-(2-pyrazine)carbonyl-L-phenylalanine-L-leucine boronic acid], the apoptotic response entry in the experiment on normal melanocytes (MC009 and MC011, 0.01 to 10 μM, 24 hrs continuous exposure) was “less than 10%”. The “induction of BH3-only proteins” value in the experiment on NOXA (SK-MeI-28, 1 μM) was “only NOXA was consistently induced in all four melanoma cells”.
